The source of these data is patent US20240091385A1, “METHODS OF ASSESSING SELECTIVE GLUCOCORTICOID RECEPTOR MODULATION AND OF IDENTIFYING AND TREATING PATIENTS LIKELY TO BENEFIT FROM GLUCOCORTICOID RECEPTOR MODULATION” (Corcept Therapeutics Incorporated, priority 2022, published 2024).

Assay [1] relates to other hormone receptors. Particulars: cited from earlier work.
The subject of assay [2] is CLEC10A. Kind of assay: Whole blood CLEC10A RNA after prednisone in healthy volunteers (NCT03335956). The class given is in vivo, human. How it is done:
This was a Phase 1 single-ascending dose (SAD) and multiple-ascending dose (MAD) study to assess the safety and pharmacological activity of exicorilant. Co-dosing of exicorilant with prednisone 25 mg, and comparison to the effects of prednisone alone, established the pharmacological activity of exicorilant. Only the specimens collected after dosing with prednisone alone were analyzed for the studies described below. Blood was collected in the morning prior to dosing in PAXgene RNA tubes. 4 hours after a dose of prednisone 25 mg, blood was drawn again. […] (Nanostring Technologies, Seattle WA, USA).

For assay [3], the system named is GR target genes in whole blood. Put plainly: Whole blood RNA fold change (NanoString 444-gene panel), randomized phase 2 ovarian cancer study NCT03776812. The format is in vivo, human. Conditions: ovarian phase 2 study, summary statement. The procedure:
This phase 2, open-label, randomized, 3-arm study was performed in accordance with the principles of the Declaration of Helsinki, the Good Clinical Practice guidelines of the International Council on Harmonisation, and local regulatory requirements. The protocol was approved by the institutional review board or independent ethics committee at each investigative site. All patients or their legally authorized representatives provided written informed consent. […] Blood (2.5 mL) was drawn into a […] blood RNA tube (Qiagen) using a butterfly needle. The tube was sealed and gently inverted 10 times. The tube was frozen in dry ice and stored at -80° C. until RNA extraction. […] (Nanostring Technologies, Seattle WA, USA). […] For baseline only analyses, gene abundance is reported as normalized counts. Data were analyzed and adjusted P-values (with Benjamini-Yekutieli false discovery rate corrections) were determined in nSolver 4.0 (NanoString Technologies, Seattle, WA). Cross validated random forest techniques were used to derive a gene signature that could distinguish the relacorilant+nab-paclitaxel group from nab-paclitaxel alone ([…], Poland, Study WO5).

As to `Cn1ncc(S(=O)(=O)N2CC[C@H]3Cc4c(cnn4-c4ccc(F)cc4)C[C@]3(C(=O)c3cc(C(F)(F)F)ccn3)C2)n1` [exicorilant, ((4aR,8aS)-1-(4-fluorophenyl)-6-((2-methyl-2H-1,2,3-triazol-4-yl)sulfonyl)-4,4a,5,6,7,8,8a,9-octahydro-1H-pyrazolo[3,4-g]isoquinolin-4a-yl)(4-(trifluoromethyl)pyridin-2-yl)methanone], the “affinity for other hormone receptors” value in assay [1] was “no affinity”.

Regarding `C[C@]12C=CC(=O)C=C1CC[C@@H]1[C@@H]2C(=O)C[C@@]2(C)[C@H]1CC[C@]2(O)C(=O)CO` [prednisone], in assay [2] (4 hours after prednisone 25 mg, adj P=6.4×10^−8), the CLEC10A fold change is reported as 0.37. Further, the “CLEC10A expression in whole blood” value in assay [2] (prednisone 25 mg) is reported as “suppressed”.

As to `Cn1cc(S(=O)(=O)N2CCC3=Cc4c(cnn4-c4ccc(F)cc4)C[C@]3(C(=O)c3cc(C(F)(F)F)ccn3)C2)cn1` [relacorilant, (R)-(1-(4-fluorophenyl)-6-((1-methyl-1H-pyrazol-4-yl)sulfonyl)-4,4a,5,6,7,8-hexahydro-1H-pyrazolo[3,4-g]isoquinolin-4a-yl)(4-(trifluoromethyl)pyridin-2-yl)methanone], in assay [1], the “affinity for other hormone receptors” value was “no affinity”. Besides, in assay [3], the “CLEC10A expression in whole blood” value is on record as “induced”.
